Key:
[1] = Microsomal stability screen, human; details: 1 μM
[2] = Microsomal stability screen, mouse; details: 1 μM
SIRT2 = molecular target: T1, SIRT2 (Homo sapiens, UniProt Q8IXJ6); test: Fluor-de-Lys biochemical sirtuin deacetylation assay, SIRT2; details: 10 μM
T1 construct: recombinant active enzymes SIRT1, SIRT2, and the catalytically active fragment of SIRT3
T1 sequence (Q8IXJ6 1-389): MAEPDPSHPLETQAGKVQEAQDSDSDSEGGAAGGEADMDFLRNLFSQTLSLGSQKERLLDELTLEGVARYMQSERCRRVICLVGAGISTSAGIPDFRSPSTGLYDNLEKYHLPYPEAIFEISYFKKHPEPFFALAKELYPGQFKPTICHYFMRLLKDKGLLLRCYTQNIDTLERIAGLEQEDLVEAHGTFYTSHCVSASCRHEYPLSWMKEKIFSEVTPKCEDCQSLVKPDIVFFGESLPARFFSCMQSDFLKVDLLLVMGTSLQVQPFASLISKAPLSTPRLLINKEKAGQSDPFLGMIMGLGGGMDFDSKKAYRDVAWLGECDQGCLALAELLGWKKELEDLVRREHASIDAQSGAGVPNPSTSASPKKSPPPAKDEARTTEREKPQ

Row | Mean remaining parent NADPH-free (%) [1] | Mean remaining parent with NADPH (%) [1] | Mean remaining parent NADPH-free (%) [2] | Mean remaining parent with NADPH (%) [2] | melting point | inhibition at 10 µM (SIRT2) | SMILES
1 | 89% | 16% | – | – | – | – | CN(c1ccc(F)cc1)S(=O)(=O)c1cccc(C(=O)Nc2ccc(C#N)cc2)c1 [Compound 47, N-(4-Cyanophenyl)-3-(N-(4-fluorophenyl)-N-methylsulfamoyl)benzamide]
2 | 91% | 2% | 96% | 1% | – | – | CN(c1ccc(Cl)cc1)S(=O)(=O)c1cccc(C(=O)Nc2ccc(C#N)cn2)c1 [Compound 71, 3-(N-(4-Chlorophenyl)-N-methylsulfamoyl)-N-(5-cyanopyridin-2-yl)benzamide]
3 | 94% | 12% | 108% | 0% | – | – | CC(=O)c1ccc(N(C)S(=O)(=O)c2cccc(C(=O)Nc3ccc(Cl)cc3)c2)cc1 [Compound 102, 3-(N-(4-Acetylphenyl)-N-methylsulfamoyl)-N-(4-chlorophenyl)benzamide]
4 | – | – | – | – | 209 to 210 °C | 39% | CS(=O)(=O)c1ccc(COc2cccc(C(=O)Nc3ccc(C#N)cc3)c2)cc1 [Compound 216k, N-(4-cyanophenyl)-3-((4-(methylsulfonyl)benzyl)oxy)benzamide]
5 | – | – | – | – | 138 to 139 °C | 56% | N#Cc1ccc(NC(=O)c2cccc(OCc3ccc(OC(F)(F)F)cc3)c2)cc1 [Compound 216m, N-(4-cyanophenyl)-3-((4-(trifluoromethoxy)benzyl)oxy)benzamide]
6 | – | – | – | – | 168 to 169 °C | 34% | N#Cc1ccc(NC(=O)c2cccc(OCc3ccc(Cl)cn3)c2)cc1 [Compound 216n, 3-((5-chloropyridin-2-yl)methoxy)-N-(4-cyanophenyl)benzamide]
7 | – | – | – | – | 205 to 207 °C | 56% | N#Cc1ccc(COc2cccc(C(=O)Nc3ccc(C#N)cc3)c2)cc1 [Compound 216q, 3-((4-cyanobenzyl)oxy)-N-(4-cyanophenyl)benzamide]
8 | – | – | – | – | 151 to 152 °C | 69% | C[C@@H](Oc1cncc(C(=O)Nc2ccc(C#N)cc2)c1)c1ccc(F)cc1 [Compound 216r, (R)—N-(4-cyanophenyl)-5-(1-(4-fluorophenyl)ethoxy)nicotinamide]
9 | – | – | – | – | 152 to 153 °C | 27% | C[C@H](Oc1cncc(C(=O)Nc2ccc(C#N)cc2)c1)c1ccc(F)cc1 [Compound 216s, (S)—N-(4-cyanophenyl)-5-(1-(4-fluorophenyl)ethoxy)nicotinamide]
10 | – | – | – | – | 266 to 268 °C (dec.) | 0% | N#Cc1ccc(COc2cncc(C(=O)Nc3ccc(C#N)cc3)c2)cc1 [Compound 216t, 5-((4-cyanobenzyl)oxy)-N-(4-cyanophenyl)nicotinamide]
11 | – | – | – | – | 228 to 229 °C (dec.) | 0% | CC(=O)c1ccc(COc2cncc(C(=O)Nc3ccc(C#N)cc3)c2)cc1 [Compound 216u, 5-((4-acetylbenzyl)oxy)-N-(4-cyanophenyl)nicotinamide]
12 | – | – | – | – | 199 to 201 °C | 15% | N#Cc1ccc(COc2cc(O)cc(C(=O)Nc3ccc(C#N)cc3)c2)cc1 [Compound 216w, 3-((4-cyanobenzyl)oxy)-N-(4-cyanophenyl)-5-hydroxybenzamide]
13 | – | – | – | – | 173 to 174 °C | 64% | N#Cc1ccc(NC(=O)c2cccc(OCc3ccc(F)c(F)c3)c2)cc1 [Compound 216z, N-(4-cyanophenyl)-3-((3,4-difluorobenzyl)oxy)benzamide]
14 | – | – | – | – | 173 to 174 °C | 41% | N#Cc1ccc(NC(=O)c2cccc(NCc3ccc(F)cc3)c2)cc1 [Compound 221a, N-(4-cyanophenyl)-3-((4-fluorobenzyl)amino)benzamide]
15 | – | – | – | – | 176 to 177 °C | 75% | CN(Cc1ccc(F)cc1)c1cccc(C(=O)Nc2ccc(C#N)cc2)c1 [Compound 221c, N-(4-cyanophenyl)-3-((4-fluorobenzyl)(methyl)amino)benzamide]
